Laboratory results: patent US20220081412A1, “QUINOLINYL-PYRAZINE-CARBOXAMIDE COMPOUNDS AND USES THEREOF” (The Regents of the University of Michigan, priority 2018, published 2022)

Tested on: NCI60 cell lines
Assay: NCI60 cell line panel
Assay type: cell-based, human
Protocol: The Developmental Therapeutics Program (DTP) of NCI has evaluated more than 100,000 pure compounds and more than 34,000 crude extracts against the panel of human tumor cell lines. The resultant data are analyzed using a program called COMPARE, that rank the entire database of tested compounds in the order of the similarity of the responses. […] Thus, the NCI60 databases is highly useful to the cancer research community. Further experiments were conducted that tested some of the active compounds in a panel of NCI60 cell line to relate our compounds with some known inhibitors to have an idea of possible mechanism of action.
In order to understand the selectivity of these compounds in different cancer types, some of them were tested against a panel of 60 cell lines (Table XXXIX).

O=C(Nc1cc(F)cc2cccnc12)c1cnc(N2CCNCC2)cn1 [J44, N-(6-fluoroquinolin-8-yl)-5-(piperazin-1-yl)pyrazine-2-carboxamide]
GIPRCNT: % Growth inhibition (Breast Cancer, BT-549): 82.22%
GIPRCNT: % Growth inhibition (Breast Cancer, HS 578T): 71.77%
GIPRCNT: % Growth inhibition (Breast Cancer, MCF7): 75.22%
GIPRCNT: % Growth inhibition (Breast Cancer, MDA-MB-231/ATCC): 10.16%
GIPRCNT: % Growth inhibition (Breast Cancer, MDA-MB-468): −5.124%
GIPRCNT: % Growth inhibition (Breast Cancer, T-47D): 18.05%
GIPRCNT: % Growth inhibition (CNS Cancer, SF-268): 77.45%
GIPRCNT: % Growth inhibition (CNS Cancer, SF-295): 89.3%
GIPRCNT: % Growth inhibition (CNS Cancer, SF-539): 85.5%
GIPRCNT: % Growth inhibition (CNS Cancer, SNB-19): 87.74%
GIPRCNT: % Growth inhibition (CNS Cancer, SNB-75): 82.71%
GIPRCNT: % Growth inhibition (CNS Cancer, U251): 63.6%
GIPRCNT: % Growth inhibition (Colon Cancer, COLO 205): 13.9%
GIPRCNT: % Growth inhibition (Colon Cancer, HCC-2998): 85.58%
GIPRCNT: % Growth inhibition (Colon Cancer, HCT-15): 40.52%
GIPRCNT: % Growth inhibition (Colon Cancer, HCT-116): 11%
GIPRCNT: % Growth inhibition (Colon Cancer, HT29): 36.78%
GIPRCNT: % Growth inhibition (Colon Cancer, KM12): 81.24%
GIPRCNT: % Growth inhibition (Colon Cancer, SW-620): 40.94%
GIPRCNT: % Growth inhibition (Leukemia, CCRF-CEM): 26.31%
GIPRCNT: % Growth inhibition (Leukemia, HL-60(TB)): 77.07%
GIPRCNT: % Growth inhibition (Leukemia, K-562): 19.84%
GIPRCNT: % Growth inhibition (Leukemia, MOLT-4): 24.48%
GIPRCNT: % Growth inhibition (Leukemia, RPMI-8226): 93.13%
GIPRCNT: % Growth inhibition (Leukemia, SR): 29.46%
GIPRCNT: % Growth inhibition (Melanoma, LOX IMVI): 65.76%
GIPRCNT: % Growth inhibition (Melanoma, M14): 86.06%
GIPRCNT: % Growth inhibition (Melanoma, MALME-3M): 59.5595%
GIPRCNT: % Growth inhibition (Melanoma, MDA-MB-435): 77.28%
GIPRCNT: % Growth inhibition (Melanoma, SK-MEL-2): 104.1313%
GIPRCNT: % Growth inhibition (Melanoma, SK-MEL-5): 97.38%
GIPRCNT: % Growth inhibition (Melanoma, UACC-62): 88.004%
GIPRCNT: % Growth inhibition (Melanoma, UACC-257): 91.12%
GIPRCNT: % Growth inhibition (Non-Small Cell Lung Cancer, A549/ATCC): 88.1%
GIPRCNT: % Growth inhibition (Non-Small Cell Lung Cancer, EKVX): 82.71%
GIPRCNT: % Growth inhibition (Non-Small Cell Lung Cancer, HOP-62): 85.24%
GIPRCNT: % Growth inhibition (Non-Small Cell Lung Cancer, HOP-92): 49.09%
GIPRCNT: % Growth inhibition (Non-Small Cell Lung Cancer, NCI-H23): 83.43%
GIPRCNT: % Growth inhibition (Non-Small Cell Lung Cancer, NCI-H226): 100.3613%
GIPRCNT: % Growth inhibition (Non-Small Cell Lung Cancer, NCI-H322M): 69.29%
GIPRCNT: % Growth inhibition (Non-Small Cell Lung Cancer, NCI-H460): 80.62%
GIPRCNT: % Growth inhibition (Non-Small Cell Lung Cancer, NCI-H522): 54.48%
GIPRCNT: % Growth inhibition (Ovarian Cancer, IGROV1): 100.6006%
GIPRCNT: % Growth inhibition (Ovarian Cancer, NCI/ADR-RES): 72.41%
GIPRCNT: % Growth inhibition (Ovarian Cancer, OVCAR-3): 43.52%
GIPRCNT: % Growth inhibition (Ovarian Cancer, OVCAR-4): 6.04%
GIPRCNT: % Growth inhibition (Ovarian Cancer, OVCAR-5): 11.16%
GIPRCNT: % Growth inhibition (Ovarian Cancer, OVCAR-8): 83.3637%
GIPRCNT: % Growth inhibition (Ovarian Cancer, SK-OV-3): 87.6273%
GIPRCNT: % Growth inhibition (Prostate Cancer, DU-145): 63.01%
GIPRCNT: % Growth inhibition (Prostate Cancer, PC-3): 29.0295%
GIPRCNT: % Growth inhibition (Renal Cancer, 786-0): 100.1067%
GIPRCNT: % Growth inhibition (Renal Cancer, A498): 89.1%
GIPRCNT: % Growth inhibition (Renal Cancer, ACHN): 88.67%
GIPRCNT: % Growth inhibition (Renal Cancer, CAKI-1): 28.3672%
GIPRCNT: % Growth inhibition (Renal Cancer, RXF 393): 52.45%
GIPRCNT: % Growth inhibition (Renal Cancer, SN12C): 54.07%
GIPRCNT: % Growth inhibition (Renal Cancer, TK-10): 74.98%
GIPRCNT: % Growth inhibition (Renal Cancer, UO-31): 66.57%
